From patent US6369058B1 (New Millennium Pharmaceutical Research Inc., priority 1999, dated 2002)

Columns and labels:
[1] = Absorption of folic acid from the nasal cavity of rats (in vivo technique, spectrophotometric assay of nasal washings); conditions: rat, intranasal 0.1 ml of folic acid solution (50 mg/10 ml, pH 8.3), nasal cavity washed with 3 ml water
Experimental: Rats were fasted overnight prior to experimentation. Surgical procedures were performed under equithesin anesthesia (3 ml/kg, i.p.). An incision was made in the neck of each rat, and the trachea cannulated with polyethylene tubing (PF-260). A closed end tube was inserted through the esophagus to the posterior part of the nasal cavity to prevent drug from entering the esophagus. The nasopalatine passage was closed with an adhesive agent to prevent drainage of the drug from the nasal cavity to the mouth.
The solution was filtered. The final pH was 8.3.
The washings were placed in a spectrophotometer cell and the absorbance was measured.

[2] = in vivo; cited from earlier work

Concentration of folic acid in the nasal cavity ([1]; time 0 min) [mg %]	Concentration of folic acid in the nasal cavity ([1]; time 2 min) [mg %]	Concentration of folic acid in the nasal cavity ([1]; time 5 min) [mg %]	Concentration of folic acid in the nasal cavity ([1]; time 15 min) [mg %]	Structure (SMILES)	Patients with abdominal cramping, nausea, vomiting, and diarrhea [2]	Patients with elevation of serum transaminases (hepatotoxicity) [2]
4.1	3.8	2.9	2.6	Nc1nc(=O)c2nc(CNc3ccc(C(=O)NC(CCC(=O)O)C(=O)O)cc3)cnc2[nH]1 [folic acid, N-[4-[[(2-Amino-1,4-dihydro-4-oxo-6-pteridinyl)methly]amino]benzoyl]-L-glutamic acid]		
				Nc1c2c(nc3ccccc13)CCCC2 [tacrine, 1,2,3,4-tetrahydro-9-aminoacridine]	up to one-third	up to 20 % of patients
